Data from patent US20240108607A1, “METHOD FOR MANUFACTURING NOVEL NITROGEN-CONTAINING COMPOUND OR SALT THEREOF AND MANUFACTURING INTERMEDIATE OF NOVEL NITROGEN-CONTAINING COMPOUND OR SALT THEREOF” (FUJIFILM Corporation, priority 2015, published 2024).

Legend:
integrin αvβ3 = integrin αvβ3 (Homo sapiens, UniProt P05106+P06756); experiment: Integrin αvβ3 binding affinity test (biotinylated vitronectin competition on immobilized integrin); conditions: inhibition of biotinylated vitronectin binding
Procedure: Test Example 1 Integrin […] Binding Affinity Test
(§1) 0.2 μg/mL of δvβ3 was immobilized in a 96-well plates (Corning Incorporated) and then blocked using a 1% Block Ace (DS Pharma Biomedical Co., Ltd.) solution, and then the plate was washed with T-PBS (PBS containing 0.05% Tween 20). A 2× concentrated evaluation compound solution (10× concentration of 3.16× dilution from 0.3 μmol/L, buffer (20 mM Tris-HCl pH 7.5, 150 mM NaCl, 1 mM CaCl2), 1 mM MgCl2, 1 mM MnCl2)) and a 4 μg/mL biotinylated vitronectin solution (labeling vitronectin (Upstate Biotechnology Inc.) by using EZ-Link Sulfo-NHS-Biotinylation Kit (Pierce Protein Biology) and then adjusting concentration) were each added to the plate in an amount of 50 μL, and the plate was shaken for 2 hours at room temperature. The plate was washed with T-PBS, a 0.2 μg/mL avidin·peroxidase (Pierce Protein Biology) was added thereto, and the plate was shaken for 1 hour at room temperature. The plate was washed with T-PBS, an o-phenylenediamine (Sigma-Aldrich Co., LLC.) solution was added thereto such that color was produced (stopped using 4 mol/L sulfuric acid), and the absorbance (490 nm, Reference: 595 nm) was measured. The IC50 value was calculated using XLfit 3.0 (ID Business Solutions Ltd.). For each plate, as a QC sample, RGDfV (Bachem AG) was measured in duplicate. […]

integrin αvβ5 = integrin αvβ5 (Homo sapiens, UniProt P06756+P18084); experiment: Integrin αvβ5 binding affinity test (biotinylated vitronectin competition on immobilized integrin); conditions: inhibition of biotinylated vitronectin binding
Procedure: Test Example 2 Integrin […] Binding Affinity Test
as §1, with “[…]” for “δvβ3”, “PBST (10 mM Na2HPO4 pH 7.5, 150 mM NaCl, 0.01%” for “T-PBS (PBS containing 0.05%”, “[…],” for “μmol/L,”, “PBST,” for “T-PBS,”, “[…] avidin-peroxidase” for “μg/mL avidin·peroxidase”

U87MG cells [1] = experiment: Imaging of integrin expression tumor by PET; assay type: in vivo, mice (Balb/c AJcl-nu/nu); conditions: 48 hours after administration, 4.8 MBq/mouse caudal vein
Procedure: Test Example 4 Imaging of Integrin Expression Tumor by Positron Emission Tomography (PET) Using [^64Cu]-(Compound A) and [^64Cu]-(Compound B)
After 2 weeks, [^64Cu]-(compound A) was administered at 4.8 MBq/mouse into the caudal vein of the mice with a tumor having a volume of […] to 650 mm^3. After 1, 4, 24, and 48 hours, the mice were imaged by microPET/CT (Inveon, Siemens Healthcare GmbH) under isoflurane anesthesia. […], whole blood was collected from the postcava under deep isoflurane anesthesia, the animals were euthanised, and then the tumor was extracted. The weight of the tumor was measured, the radioactivity was measured using a gamma counter, and the radioactivity concentration in tumor (% ID/g) was calculated. For [^64Cu]-(compound B), imaging was performed by the same method.
FIGS. 1 and 2 show PET images relating to each compound captured at each point in time. […] As a result, a hematoma matching with the image was found in the central portion. At the time of dissection (48 hours after administration), the radioactivity concentration in tumor was 5.6% ID/g.

U87MG cells [2] = experiment: Radioactivity concentration of labeled compounds in tumor, U87MG subcutaneous transplantation; assay type: in vivo, mice (Balb/c AJcl-nu/nu); conditions: caudal vein, 111In 740 kBq, 64Cu and 90Y 500 kBq
Procedure: Test Example 3 Evaluation based on radioactivity concentration of ^111In-labeled compound, ^64Cu-labeled compound, and ^90Y-labeled compound in tumor
After 2 to 3 weeks, at a point in time when the tumor volume became 200 to 500 mm^3, 3 mice were sorted into one group at each point in time. The ^111In-labeled compound (740 k Bq) was administered into the caudal vein, the animals were sacrificed after a certain period of time, and the tumor was extracted. The weight of the tumor was measured, the radioactivity was measured using a gamma counter, and the radioactivity concentration in tumor (% ID/g) was calculated. For the ^64Cu-labeled compound (500 k Bq) and the ^90Y-labeled compound (500 k Bq), the radioactivity concentration in tumor (% ID/g) was calculated by the same method.

[3] = Absorbed dose in a human being simulated with OLINDA/EXM 1.0 from monkey organ distribution
Procedure: Blood was collected from a crab-eating macaque over time, and by using [^111In]-(compound A), from the radioactivity concentration in the blood, kinetic parameters of the compound in blood were calculated by OLINDA/EXM 1.0. Furthermore, by using [^111In]-(compound A), from the organ distribution obtained by imaging, the absorbed dose of each organ obtained in a case where the compound is administered to a human being was calculated using OLINDA/EXM 1.0. [^111In]-(compound A) (98 MBq/9.3 μg) was administered to a crab-eating macaque (Hamri Co., Ltd., males, 3-year-old, 3.4 kg) under anesthesia. After the administration, blood was collected over time, and imaging was performed using a gamma camera. The blood was collected 10, 30, and 60 minutes after the administration and 2, 4, 5, 6, 24, 48, 72, and 144 hours after the administration. Regarding the imaging, after 1, 2, 4, 6, 24, 48, 72, and 144 hours, planar imaging was performed using a gamma camera (Symbia, Siemens Healthcare GmbH). Regarding the anesthesia, the animal was anesthetized with ketamine at 20 mg/kg before the administration of [^111In]-(compound A) and kept anesthetized until the end of imaging, which was continued for 6 hours after the administration, by inhalation anesthesia (isofluran 2 to 3%, 5 to 8 L/min). After 24 hours, ketamine (20 mg/kg) and xylazine (2 mg/kg) were administered to perform blood collection and imaging.
Furthermore, by using exposure dose analysis software OLINDA/EXM 1.0, the absorbed dose in a human being was simulated using each of the labeled compounds, and the results are shown below.

[4] = Radiochemical purity after standing at room temperature (reversed-phase TLC); assay type: physicochemical; conditions: 22 hours
Procedure: A indium [^111In] chloride solution (80 MBq, 100 μL) was added to a mixture of the compound A (8.5 μg) and a 0.2 mol/L sodium acetate buffer solution (pH 4.0) (1.5 mL). The solution was heated to 100° C. for 15 minutes and then left to stand for 5 minutes at room temperature, thereby obtaining [^111In]-(compound A). […] The radiochemical purity measured immediately after the compound was prepared and measured after 24 hours at room temperature was equal to or higher than 95%.
A yttrium [^90Y] chloride solution (700 MBq, 240 μL) was added to a mixture of the compound (79 μg), gentisic acid (1.8 mg), a 0.6 mol/L sodium acetate buffer solution (pH 4.0, 120 μL), and 0.4 mol/L aqueous sodium hydroxide solution (24 μL). The solution was heated to 100° C. for 20 minutes and then left to stand for 5 minutes at room temperature, thereby obtaining [90^Y]-(compound A). […] The radiochemical purity measured immediately after the compound was prepared and measured after 24 hours at room temperature was equal to or higher than 95%.
A copper [^64Cu] chloride solution (pH 5, 35 MBq, 55 μL) was added to a mixture of the compound A (5.8 μg) and 0.2 mol/L sodium acetate buffer solution (pH 4.0, 219 μL). The solution was heated to 100° C. for 15 minutes and left to stand for 5 minute at room temperature, thereby obtaining [^64Cu]-(compound A). […] The radiochemical purity measured immediately after the compound was prepared and measured after 22 hours at room temperature was equal to or higher than 90%.
A 0.2 mol/L sodium acetate buffer solution of Copper [^64Cu] chloride (pH 4.0) (40 MBq, 155 μL) was added to a mixture of the compound B (4.2 μg), gentisic acid (1 mg), and a 0.2 mol/L sodium acetate buffer solution (pH 4.0) (5.0 μL). The solution was heated to 100° C. for 15 minutes and left to stand for 5 minutes at room temperature, thereby obtaining [^64Cu]-(compound B). […] The radiochemical purity measured immediately after the compound was prepared and measured after 24 hours at room temperature was equal to or higher than 90%.
(§2) A gallium [^67Ga] chloride solution (200 MBq, 63 μL) was added to a mixed solution of the compound A (21 μg), gentisic acid (1.0 mg), a 0.2 mol/L sodium acetate buffer solution (pH 4.0, 730.7 μL), and 4.5 mol/L aqueous sodium hydroxide solution (6.3 μL). The solution was heated to 100° C. for 15 minutes and then left to stand for 5 minutes at room temperature, thereby obtaining [^67Ga]-(compound A).
A lutetium [^177Lu] chloride solution (666 MBq, 333 μL) dissolved in a 0.2 mol/L sodium acetate buffer solution (pH 4.0) was added to a mixed solution of the compound A (70.0 μg), gentisic acid (1.8 mg), and a 0.2 mol/L sodium acetate buffer solution (pH 4.0, 83.3 μL). The solution was heated to 100° C. for 15 minutes and then left to stand for 5 minutes at room temperature, thereby obtaining [^177Lu]-(compound A).
as §2, with “(40” for “(200”, “11.7” for “63”, “B (4.1” for “A (21”, “4.5, 147.13” for “4.0, 730.7”, “(1.17” for “(6.3”, “B).” for “A).”

| Compound | IC50 (integrin αvβ3) [nM] | IC50 (integrin αvβ5) [nM] | radioactivity concentration in tumor at the time of dissection (U87MG cells [1]) [% ID/g] | Radioactivity concentration in tumor After 4 hours (U87MG cells [2]; 4 hours) [% ID/g] | Radioactivity concentration in tumor After 24 hours (U87MG cells [2]; 24 hours) [% ID/g] | Absorbed dose Brain [3] [mGy/MBq] | Absorbed dose Kidney [3] [mGy/MBq] | Absorbed dose Liver [3] [mGy/MBq] | Absorbed dose Lung [3] [mGy/MBq] | Absorbed dose Red marrow [3] [mGy/MBq] | Absorbed dose Small intestine [3] [mGy/MBq] | Absorbed dose Whole body [3] [mGy/MBq] | radiochemical purity immediately after preparation and after 22 hours at room temperature [4] [%] |
| --- | --- | --- | --- | --- | --- | --- | --- | --- | --- | --- | --- | --- | --- |
| Cc1cc(OCCCC(=O)NCCNC(=O)[C@H](CS(=O)(=O)O)NC(=O)CC[C@H](C(=O)O)N2CCN(CC(=O)O)CCN(CC(=O)O)CC2)cc(C)c1S(=O)(=O)N[C@@H](CNC(=O)CCCCc1ccc2c(n1)NCCC2)C(=O)O [Compound B, 2,2′-(7-((R)-1-carboxy-4-(((R)-1-((2-(4-(4-(N—((S)-1-carboxy-2-(5-(5,6,7,8-tetrahydro-1,8-naphthyridin-2-yl)pentanamide)ethyl)sulfamoyl)-3,5-dimethylphenoxy)butanamide)ethyl)amino)-1-oxo-3-sulfopropan-2-yl)amino)-4-oxobutyl)-1,4,7-triazonane-1,4-diyl)diacetic acid] | < 1 | < 1 |  |  |  |  |  |  |  |  |  |  |  |
| Cc1cc(OCCCC(=O)NCCNC(=O)C(CS(=O)(=O)O)NC(=O)CN2CCN(CC(=O)[O-])CCN(CC(=O)O)CCN(CC(=O)[O-])CC2)cc(C)c1S(=O)(=O)NC(CNC(=O)CCCCc1ccc2c(n1)NCCC2)C(=O)O.[64Cu+2] (stereo not drawn) [[^64Cu]-(compound A)] |  |  | 5.6 | 9.25 | 8.48 | 0.11 | 0.69 | 0.09 | 0.08 | 0.01 | 0.06 | 0.02 | ≥ 90 |
| Cc1cc(OCCCC(=O)NCCNC(=O)[C@H](CS(=O)(=O)O)NC(=O)CN2CCN(CC(=O)O)CCN(CC(=O)O)CCN(CC(=O)O)CC2)cc(C)c1S(=O)(=O)N[C@@H](CNC(=O)CCCCc1ccc2c(n1)NCCC2)C(=O)O [Compound A, 2,2′,2″-(10-(2-(((R)-1-((2-(4-(4-(N—((S)-1-carboxy-2-(5-(5,6,7,8-tetrahydro-1,8-naphthyridin-2-yl)pentanamide)ethyl)sulfamoyl)-3,5-dimethylphenoxy)butanamide)ethyl)amino)-1-oxo-3-sulfopropan-2-yl)amino)-2-oxoethyl)-1,4,7,10-tetraazacyclododecane-1,4,7-triyl)triacetic acid] | < 1 | < 1 |  |  |  |  |  |  |  |  |  |  |  |
